Patent publication US9783578B2, “Immunosuppression modulating compounds” (AURIGENE DISCOVERY TECHNOLOGIES LIMITED, priority 2010, dated 2017)
Values after ≈ are worked out from the molar mass of the structure shown. Like-named read-outs stand apart in the source and are kept apart here. Where a SMILES comes first, the peptide text is derived from it. Bridges are numbered along the chain shown (N, C = ends). Roman numbers before positions name the chains, in order.

Experiments:
4T1 cells = conditions: 3 mg/kg s.c.; during dosing period
Experimental: On day 0, 4T1 cells grown in RPMI 1640 containing 10% FBS at 70 to 75% confluency were harvested and 0.1×10^6 cells per animal were injected along with matrigel orthotopically to mammary fat pad. […] Vehicle control group of mice received only saline. Each group consisted of ten animals. Body weight and clinical signs were recorded daily. Tumour volume was measured by slide callipers.

B16F10 cells = conditions: 5 mg/kg s.c.; during the period of dosing
Experimental: C57/Black6 female mice (Aurigene, Bangalore, India) aged 6 to 8 weeks were used for the experiment. Animals were acclimatized for a week in the experimental room before conducting the experiment.
On day 0, B16F10 cells grown in DMEM containing 10% FBS at 70 to 75% confluency were harvested and 1×10^6 cells per animal were injected to mice subcutaneously on the right flank region. […] Vehicle control group of mice received only saline. Each group consisted of ten animals. Body weight and clinical signs were recorded daily.

Organisms (not named) = experiment: organism not typed
Experimental: Required quantity of the compound was weighed and dissolved in water/dimethyl sulphoxide/suitable solvent to yield 1 mg/ml stock solution. The stock solution was diluted in MHB/CAMHB to yield 8 μg/ml or 64 μg/ml or 512 μg/ml solution as per requirement. Serial two fold dilutions of the compound was prepared using MHB/CAMHB in 96 well microtitre trays using a multichannel pipette. Organisms were grown in MHB/CAMHB for 4-5 hrs at 35±2° C., 110±10 rpm. Optical density (OD) of the cultures is adjusted to 625 nm which corresponds to 0.5 Mc Farland standard (1-2×10^8 cfu/ml) and further diluted to achieve a final inoculum of […]×10^4 cfu/well. Broth, compound and organism controls were set up. Microdilution trays were incubated at 35±2° C. for 16-20 hours in an ambient air incubator. After the incubation period, growth of organism in the wells was detected by unaided eye facilitated by a viewing device.

in vitro = experiment: in vitro
Experimental: Briefly, overnight fasted rats were sacrificed by cervical dislocation; kidneys were removed, washed with chilled saline and decapsulated. The renal tissue was sliced and a 5% homogenate was made in buffer containing 2 mM Tris-HCl, 50 mM mannitol pH 7.1 using 10 strokes in a Porter-Elvelhemhomogeniser. The homogenate was centrifuged at 250×g for 5 min and the pellet was re-homogenized (four strokes) in the same buffer. Both the homogenate preparations were pooled (an aliquot of sample was taken for enzyme assays), allowed to remain at 4° C. for 15 min and filtered using a nylon mesh cloth. To this, a 50% PEG solution in water was added to make a final concentration of 10% PEG, stirred for 15 min continuously at 4° C. and centrifuged at 7500×g for 10 min. The pellet was discarded and the supernatant was spun at 12,000×g for 10 min. This pellet was discarded and the supernatant was centrifuged at 27,000×g for 40 min. To the pellet, 15 ml suspension buffer containing 10 mM Tris-HCl and 300 mM mannitol, pH 7.1 was added, centrifuged at 27,000×g for 40 min. The pellet was washed twice with the same suspension buffer and finally suspended 1 ml of the same buffer using a syringe fitted with a 26-gauge needle.
1. Microsomal protein working solution was prepared as mentioned above (0.55 mg/ml) in 50 mM potassium phosphate buffer (pH 7.4)
2. Test compound (compound 69) working stock solutions at concentration of 4 μM was prepared in 50 mM potassium phosphate buffer (pH 7.4)
3. 125 μL of test compound (compound 69) from step 2 diluted with 100 μL of buffer and 275 μl of microsomal protein solution from step 2 was pre-incubated separately for 10 mins at 37° C.
4. Both the test solution from step 3 was mixed together and the reaction mixture was aliquoted at various time intervals and processed by SPE method.
Kidney brush border stability of the compounds was calculated as the amount of substrate metabolized by the incubation with kidney brush border microsomes. Initial amount of substrate (concentration at T0) was measured and KBBM stability was assessed by the disappearance of compound at various time points based on the change in analyte to internal standard peak height ratio using LCMS/MS (API 4000, AB Sciex). Results are expressed as mean±SD of test compound remaining at any given time point (Table VI).

[1] = test system: mouse splenocytes inhibited by MDA-MB-231 tumour cells expressing PD-L1; experiment: Mouse splenocyte proliferation rescue, CFSE method; assay type: cell-based; conditions: screened at 100 nm concentration and compared with 100 nm Comp 8
Experimental: Mouse splenocytes harvested from 6-8 weeks old C57 BL6 mice.; RPMI 1640 (GIBCO, Cat #11875); DMEM with high glucose (GIBCO, Cat #D6429); Fetal Bovine Serum [Hyclone, Cat #SH30071.03]; Pencilin (10000 unit/ml)-Streptomycin(10,000 μg/ml) Liquid (GIBCO, Cat #15140-122); MEM Sodium Pyruvate solution 100 mM (100×), Liquid (GIBCO, Cat #11360); Nonessential amino acid (GIBCO, Cat #11140); L-Glutamine (GIBCO, Cat #25030); Anti-CD3 antibody (eBiosciences—16-0032); Anti-CD28 antibody (eBiosciences—16-0281); ACK lysis buffer (1 mL) (GIBCO, Cat #-A10492); Histopaque (density—1.083 gm/ml) (SIGMA 10831); Trypan blue solution (SIGMA-T8154); Hemacytometer (Bright line-SIGMA Z359629); FACS Buffer (PBS/0.1% BSA): Phosphate Buffered Saline (PBS) pH 7.2 (HiMedia TS1006) with 0.1% Bovine Serum Albumin (BSA) (SIGMA A7050) and sodium azide (SIGMA 08591); 5 mM stock solution of CFSE: CFSE stock solution was prepared by diluting lyophilized CFSE with 180 μL of Di methyl Sulfoxide (DMSO C2H6SO, SIGMA-D-5879) and aliquoted in to tubes for further use. Working concentrations were titrated from 10 μM to 1 μM. (eBioscience—650850-85); 96-well format ELISA plates (Corning CLS3390); BD FACS caliber (E6016).
Splenocytes harvested in a 50 ml falcon tube by mashing spleen in a 40 μm cell strainer were further treated with 1 ml ACK lysis buffer for 5 mins at RT. After washing with 9 ml of RPMI complete media, cells re-suspended in 3 ml of 1×PBS in a 15 ml tube. 3 ml of histopaque was added very carefully to the bottom of the tube without disturbing overlaying splenocyte suspension. Spin the tube at 800×g for 20 mins at RT. Opaque layer of lymphocytes is collected carefully without disturbing/mixing any of the layers. Cells washed twice with cold 1×PBS followed by total cell counting using trypan blue exclusion method and used further for cell based assays.
Tumour cells (MDMBA231) are cultured and maintained in high glucose complete DMEM media. 1×10^5 tumour cells were plated in 96 well plates along with required conc. of PD1 derived peptide and allowed to adhere at 37° C. for 4 hrs. 1×10^6 cells/ml of harvested splenocytes are treated with 5 μM of CFSE in pre warmed 1×PBS/0.1% BSA solution for 10 mins at 37° C. Excess CFSE was quenched using 5 volumes of ice-cold culture media to the cells and incubated on ice for 5 mins. CFSE labeled splenocytes were further given three washes with ice cold complete DMEM media. CFSE labeled 1×10^5 splenocytes added to above wells containing tumours cells and test compounds. Splenocytes were stimulated with anti-CD3 and anti-CD28 antibody (1 μg/ml each) and the co-culture was further incubated for 72 hrs at 37° C. with 5% CO2. Cells were harvested and washed thrice with ice cold FACS buffer and % proliferation was analyzed using a FACS caliber with 488 nm excitation and 521 nm emission filters. Each experimental condition was carried out in triplicates and each experiment at least carried out three times. Splenocyte proliferation was analyzed using cell quest FACS program and fold induction was calculated by normalizing individual values to percent background proliferation. Fold induction=Percent splenocyte proliferation/percent background proliferation Stimulated splenocytes: Splenocytes+anti-CD3/CD28 stimulation Background proliferation: Splenocytes+anti-CD3/CD28+Tumour Percent Proliferation rescue={(compound percent proliferation−Background percent proliferation)/(Stimulated percent proliferation−Background percent proliferation)}*100.

[2] = rat, kidney brush border membrane (KBBM) preparation, pH 7.4

## CC[C@H](C)[C@H](NC(=O)[C@H](CCC(N)=O)NC(=O)[C@H](C)NC(=O)[C@H](CCCCN)NC(=O)[C@@H]1CCCN1C(=O)[C@H](C)NC(=O)[C@H](CC(C)C)NC(=O)[C@H](CCC(N)=O)NC(=O)[C@@H](NC(=O)[C@@H](NC(=O)[C@H](CCCNC(=N)N)NC(=O)[C@H](Cc1ccccc1)NC(=O)C(CCCCNC(=O)[C@H](Cc1ccccc1)NC(=O)[C@H](CO)NC(=O)[C@H](CCC(=O)O)NC(=O)[C@H](CO)NC(=O)[C@@H](NC(=O)[C@H](CC(N)=O)NC(=O)[C@@H](N)CO)[C@@H](C)O)NC(=O)[C@H](Cc1ccccc1)NC(=O)[C@H](CO)NC(=O)[C@H](CCC(=O)O)NC(=O)[C@H](CO)NC(=O)[C@@H](NC(=O)[C@H](CC(N)=O)NC(=O)[C@@H](N)CO)[C@@H](C)O)C(C)C)[C@@H](C)O)C(=O)N[C@@H](CCCCN)C(=O)N[C@@H](CCC(=O)O)C(N)=O (stereo partly shown) [Compound 8]
4T1 cells
  Body weight: no body weight reduction
B16F10 cells
  Body weight: no body weight reduction
  Clinical signs: no clinical signs
Organisms (not named); broth microdilution, 16-20 hours at 35±2° C.
  MIC: > 32 µg/mL

## CC[C@H](C)[C@H](NC(=O)[C@H](CCCCN)NC(=O)[C@H](C)NC(=O)[C@H](CCCCN)NC(=O)[C@@H]1CCCN1C(=O)[C@H](Cc1c[nH]cn1)NC(=O)[C@H](CC(C)C)NC(=O)[C@H](CCC(N)=O)NC(=O)[C@@H](NC(=O)[C@@H](NC(=O)[C@H](CCC(N)=O)NC(=O)[C@H](Cc1ccccc1)NC(=O)[C@H](CCCCNC(=O)[C@H](CC(C)C)NC(=O)[C@H](CC(=O)O)NC(=O)[C@H](CCC(=O)O)NC(=O)[C@H](CO)NC(=O)[C@H](Cc1c[nH]c2ccccc12)NC(=O)[C@H](CC(N)=O)NC(=O)[C@@H](N)CO)NC(=O)[C@H](CC(C)C)NC(=O)[C@H](CC(=O)O)NC(=O)[C@H](CCC(=O)O)NC(=O)[C@H](CO)NC(=O)[C@H](Cc1c[nH]c2ccccc12)NC(=O)[C@H](CC(N)=O)NC(=O)[C@@H](N)CO)[C@@H](C)CC)[C@@H](C)CC)C(=O)N[C@@H](CCC(=O)O)C(=O)N[C@@H](CCC(=O)O)C(N)=O [Compound 69] (I: H-SNWSEDLKFQIIQLHPKAKIEE-NH2 / II: H-SNWSEDL; amide I:8-II:C)
In vitro; 0 min
  RKBBM % compound remaining: 100%
In vitro; [2]
  remaining at 10 min, 1 μM: 100%
  remaining at 0.5 h, 1 μM: 98%
  remaining at 1 h, 1 μM: 81%
[1]
  Percent rescue for various compounds in mouse splenocyte proliferation CFSE based assay: 48%

## O=C(O)c1cn(C2CC2)c2cc(N3CCNCC3)c(F)cc2c1=O [ciprofloxacin]
Organisms (not named)
  MIC: 0.007 µg/mL (≈ 0.0211 µM)

## C[C@H]1COc2c(N3CCN(C)CC3)c(F)cc3c(=O)c(C(=O)O)cn1c23 [levofloxacin]
Organisms (not named)
  MIC: 0.015 µg/mL (≈ 0.0415 µM)

## Biotin-Ahx-EKIQAKPAYWNLVK(KDTQNS)DTQNS-NH2 [Compound 61]
[1]
  Percent rescue for various compounds in mouse splenocyte proliferation CFSE based assay: 67%

## Biotin-Ahx-sntsesfk(sntsesf)frvtqlapkaqike-NH2 [Compound 60]
[1]
  Percent rescue for various compounds in mouse splenocyte proliferation CFSE based assay: 14.9%

## CGAISLAPKAQIKE-NH2 [Compound 5]
[1]
  Percent rescue for various compounds in mouse splenocyte proliferation CFSE based assay: 68%

## EDRSQPGQDCR-NH2 [Compound 4]
[1]
  Percent rescue for various compounds in mouse splenocyte proliferation CFSE based assay: 74.7%

## FRVTQLAPKAQIKE-NH2 [Compound 43]
[1]
  Percent rescue for various compounds in mouse splenocyte proliferation CFSE based assay: 66%

## SNTSESF-NH2 [Compound 1]
[1]
  Percent rescue for various compounds in mouse splenocyte proliferation CFSE based assay: 96.5%

## SNTSESFFRVTQLAPKAQIKE-NH2 [Compound 26]
[1]
  Percent rescue for various compounds in mouse splenocyte proliferation CFSE based assay: 86.6%

## sntsesfk(sntsesf)frvtqlapkaqike-NH2 [Compound 13]
[1]; control peptide
  Percent rescue in mouse splenocyte proliferation CFSE based assay (cell printed with nM, control peptide): 0-12 nM-
